Measurements published in patent US20230167071A1, “COMPOUNDS WITH ANTIMALARIAL ACTIVITY” (UNIVERSITY OF PUERTO RICO, priority 2019, published 2023).

Tests used:
[1] = tested on: P. falciparum multidrug-resistant Dd2 clone B2; experiment: In vitro susceptibility of P. falciparum, flow cytometry after 72 hours; format: cell-based, Plasmodium falciparum; conditions: P. falciparum Dd2 clone B2, 72 hours; read-out: EC50 (parasite growth)
Method: After 72 hours, parasite growth was assessed using flow cytometry on an Accuri C6 cytometer with parasites stained with SYBR green I and MitoTracker Deep Red. Compound CB-27 was tested in six independent experiments with technical replicates. The percentage of parasite growth was curve fitted against log-transformed drug concentrations and the EC50 was calculated using GraphPad Prism 6 software.

PbGST = experiment: GST inhibition (CDNB/GSH) in crude P. berghei protein extract; format: biochemical, Plasmodium berghei; conditions: crude P. berghei protein extract, 0, 1, 10, and 50 μM
Method: Materials and methods. […] Parasite extracts were prepared and the pellets containing proteins were resuspended in buffer (3.5 mM MgCl2, 110 mM KCl, 40 mM NaCl, 20 mM HEPES, 6 mM EDTA, pH 7.4) with protease inhibitors (0.01 mg of leupeptin A, 0.001 mg of pepstatin A, 0.35 mg of PMSF). The parasite pellets were lysed by three freeze/thaw cycles (liquid nitrogen and 37° C. water bath) and protein content was determined using Bio-Rad DC Protein Assay. […] . The reaction was initiated by the addition of 1 mM GSH and the formation of S-(2,4-dinitrophenyl)glutathione was monitored spectrophotometrically at 340 nm (ε340 nm=0.0096 μM^−1cm^−1) using the SpectraMax M3 Microplate Reader (Molecular Devices).

human placenta GST = molecular target: T1, human placenta GST (Homo sapiens, UniProt P09211); experiment: GST inhibition, human placenta GST; format: biochemical; conditions: human placenta GST, 0, 1, 10, and 50 μM
T1 construct: from tissue; host or cells: human placenta

mouse erythrocytes = experiment: Red blood cell lysis assay; format: cell-based; conditions: mouse erythrocytes 1% hematocrit, 24 hours, 0.2-100× fold EC50
From the text: Materials and methods. Random-bred Swiss albino CD-1 female mice (Charles River Laboratories, Wilmington, Mass., USA) from 6-8 weeks old were used for the study. All mice procedures were approved by the Institutional Animal Care and Use Committee under the protocol number 2480108 at the AAALAC accredited University of Puerto Rico-Medical Sciences Campus Animal Resources Center. The mice work was done in strict accordance with the “Guide for the Care and Use of Laboratory Animals” (National-Research-Council, Current Edition) and regulations of the PHS Policy on Humane Care and Use of Laboratory Animals. Mice were acclimated for 1 week before initiation of experiments.
Compounds were analyzed at 10 serial dilutions using fresh mouse erythrocytes at 1% hematocrit in Dulbecco's PBS (Gibco®) in V-bottom microplates (Corning® 96 well TC-treated microplate). The plates were incubated for 24 hours at 37° C. followed by centrifugation at 2,000 rpm for 5 min, and 50 μl of supernatant was transferred to a fresh flat-bottom microplate (BD Falcon®). The amount of hemoglobin release in the supernatant was determined using the QuantiChrom™ Hemoglobin Assay Kit (DIHB-250; BioAssay Systems) by measuring the absorbance at 400 nm following the manufacturer's instructions. Saponin at 100 μg/ml was used as a positive control for 100% cell lysis, blood (1% hematocrit) with Dulbecco's Phosphate-Buffered Saline (DPBS) as a negative control for no cell lysis, and DPBS as a blank. Compounds were tested in three independent experiments in triplicate each.

T1 sequence (P09211 2-210 limits assumed): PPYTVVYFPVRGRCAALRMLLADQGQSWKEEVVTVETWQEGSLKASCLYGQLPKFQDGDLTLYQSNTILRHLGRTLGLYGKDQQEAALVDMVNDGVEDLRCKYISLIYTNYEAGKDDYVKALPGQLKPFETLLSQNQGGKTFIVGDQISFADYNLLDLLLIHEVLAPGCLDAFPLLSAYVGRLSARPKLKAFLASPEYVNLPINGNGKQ

| EC50 [1] [nM] | inhibition of human GST activity (human placenta GST) | Structure (SMILES) | inhibition of PbGST activity (PbGST) | hemolysis (lytic activity) (mouse erythrocytes) |
| --- | --- | --- | --- | --- |
| 958 | does not inhibit | O=C(NN=Cc1c(O)ccc2ccccc12)c1nc(-c2ccccc2)cc(-c2ccccc2)n1 [CB-27] | concentration-dependent inhibition | did not hemolyze erythrocytes |
|  |  | COc1cccc(/C=N/NC(=O)c2nc(-c3ccccc3)cc(-c3ccccc3)n2)c1O [CB-41] |  | did not hemolyze erythrocytes |
|  |  | O=C(N/N=C/c1cc(Br)ccc1O)/C(=C/C=C/c1ccccc1)NC(=O)c1ccccc1 [CB-50] |  | did not hemolyze erythrocytes |
|  |  | O=C(N/N=C/c1ccccc1O)c1cc(-c2ccccc2)nc2ccccc12 [CB-53] |  | did not hemolyze erythrocytes |
|  |  | COc1cccc(C=NNC(=O)c2cc(-c3ccccc3)nc3ccccc23)c1O [CB-58] |  | did not hemolyze erythrocytes |
|  |  | O=C(Nc1cc(Cl)ccc1O)c1cc2nc(-c3ccccc3)cc(-c3ccccc3)n2n1 [CB-59] |  | did not hemolyze erythrocytes |
|  |  | O=C(N/N=C/c1c(O)ccc2ccccc12)c1cc([N+](=O)[O-])cc([N+](=O)[O-])c1 [CB-61] |  | did not hemolyze erythrocytes |
